Measured values reported in US11771738B2 (Zoetis Services LLC, priority 2018, dated 2023).
Like-named read-outs stand apart in the source and are kept apart here.

Assays:
Assay type in all cases: cell-based
D. immitis L4 larvae = assay: Dirofilaria immitis, L4 Stage (DiL4) In Vitro Assay; conditions: for minimal effective concentration: Dirofilaria immitis, 72 h, read-out: DiL4 MED, Minimum Effective Dose, D. immitis L4 larvae motility, in vitro; for DiMf/DiL4: larval stage selectivity, ratio of DiMf MED to DiL4 MED
[1] = test system: microfilariae of Dirofilaria immitis; assay: Dirofilaria immitis, Microfilaria (DiMf) In Vitro Assay; conditions: Dirofilaria immitis, 72 h, read-out: DiMf MED, Minimum Effective Dose, D. immitis microfilariae motility, in vitro
[2] = test system: third stage larvae of Haemonchus contortus; assay: Haemonchus contortus, Larvae Stage 3 (HcL3) In Vitro Assay; conditions: Haemonchus contortus, 96 h
[3] = read-out: HcL3 MED, Haemonchus contortus third stage larvae in vitro, class mark appended to the Ex # in Table 3
[4] = read-out: HcL3 MED, Minimum Effective Dose, H. contortus third stage larvae, approximately 96 hours
[5] = read-out: HcL3 MED, approximately 96 hours incubation, multiple-resistant field isolate

SMILES	minimal effective concentration (D. immitis L4 larvae) [µM]	DiMf/DiL4 (D. immitis L4 larvae)	minimal effective concentration [1] [µM]	minimal effective concentration [2, 3] [µM]	minimal effective concentration [2, 4] [µM]	minimal effective concentration [2, 5] [µM]
CC(C)C[C@H]1C(=O)O[C@H](Cc2ccc(Cc3cncnc3C(C)C)cc2)C(=O)N(C)[C@@H](CC(C)C)C(=O)O[C@H](C)C(=O)N(C)[C@@H](CC(C)C)C(=O)O[C@H](Cc2ccc(Cc3cncnc3C(C)C)cc2)C(=O)N(C)[C@@H](CC(C)C)C(=O)O[C@H](C)C(=O)N1C [Example 3-283, (3S,6R,9S,12R,15S,18R,21S,24R)-3,9,15,21-tetraisobutyl-6,18-bis(4-((4-isopropylpyrimidin-5-yl)methyl)benzyl)-4,10,12,16,22,24-hexamethyl-1,7,13,19-tetraoxa-4,10,16,22-tetraazacyclotetracosan-2,5,8,11,14,17,20,23-octaone]	0.0005	6	0.003	< 1	1	≤ 1
CC(C)C[C@H]1C(=O)O[C@H](Cc2ccc(Cc3cc(C4CC4)no3)cc2)C(=O)N(C)[C@@H](CC(C)C)C(=O)O[C@H](C)C(=O)N(C)[C@@H](CC(C)C)C(=O)O[C@H](Cc2ccc(Cc3cc(C4CC4)no3)cc2)C(=O)N(C)[C@@H](CC(C)C)C(=O)O[C@H](C)C(=O)N1C [Example 3-284, (3S,6R,9S,12R,15S,18R,21S,24R)-6,18-bis(4-((3-cyclopropylisoxazol-5-yl)methyl)benzyl)-3,9,15,21-tetraisobutyl-4,10,12,16,22,24-hexamethyl-1,7,13,19-tetraoxa-4,10,16,22-tetraazacyclotetracosan-2,5,8,11,14,17,20,23-octaone]	0.0005	200	0.1		> 10	
CC(C)C[C@H]1C(=O)O[C@H](Cc2ccc([C@H](F)c3nccs3)cc2)C(=O)N(C)[C@@H](CC(C)C)C(=O)O[C@H](C)C(=O)N(C)[C@@H](CC(C)C)C(=O)O[C@H](Cc2ccc([C@@H](F)c3nccs3)cc2)C(=O)N(C)[C@@H](CC(C)C)C(=O)O[C@H](C)C(=O)N1C [Example 3-285, (3S,6R,9S,12R,15S,18R,21S,24R)-6-(4-((R)-fluoro(thiazol-2-yl)methyl)benzyl)-18-(4-((S)-fluoro(thiazol-2-yl)methyl)benzyl)-3,9,15,21-tetraisobutyl-4,10,12,16,22,24-hexamethyl-1,7,13,19-tetraoxa-4,10,16,22-tetraazacyclotetracosan-2,5,8,11,14,17,20,23-octaone]	0.0005	6	0.003		5.7	
CC(C)C[C@H]1C(=O)O[C@H](Cc2ccc(Cc3cnn(CCF)c3)cc2)C(=O)N(C)[C@@H](CC(C)C)C(=O)O[C@H](C)C(=O)N(C)[C@@H](CC(C)C)C(=O)O[C@H](Cc2ccc(Cc3cnn(CCF)c3)cc2)C(=O)N(C)[C@@H](CC(C)C)C(=O)O[C@H](C)C(=O)N1C [Example 3-286, (3S,6R,9S,12R,15S,18R,21S,24R)-6,18-bis(4-((1-(2-fluoroethyl)-1H-pyrazol-4-yl)methyl)benzyl)-3,9,15,21-tetraisobutyl-4,10,12,16,22,24-hexamethyl-1,7,13,19-tetraoxa-4,10,16,22-tetraazacyclotetracosan-2,5,8,11,14,17,20,23-octaone]	0.0005	60	0.03		> 10	
CC(C)C[C@H]1C(=O)O[C@H](Cc2ccc(Cc3ccc(C(F)F)nc3)cc2)C(=O)N(C)[C@@H](CC(C)C)C(=O)O[C@H](C)C(=O)N(C)[C@@H](CC(C)C)C(=O)O[C@H](Cc2ccc(Cc3ccc(C(F)F)nc3)cc2)C(=O)N(C)[C@@H](CC(C)C)C(=O)O[C@H](C)C(=O)N1C [Example 3-287, (3S,6R,9S,12R,15S,18R,21S,24R)-6,18-bis(4-((6-(difluoromethyl)pyridin-3-yl)methyl)benzyl)-3,9,15,21-tetraisobutyl-4,10,12,16,22,24-hexamethyl-1,7,13,19-tetraoxa-4,10,16,22-tetraazacyclotetracosan-2,5,8,11,14,17,20,23-octaone]	0.0005	100	0.05		> 10	
CC(C)C[C@H]1C(=O)O[C@H](Cc2ccc(Cc3cncnc3C3CC3)cc2)C(=O)N(C)[C@@H](CC(C)C)C(=O)O[C@H](C)C(=O)N(C)[C@@H](CC(C)C)C(=O)O[C@H](Cc2ccc(Cc3cncnc3C3CC3)cc2)C(=O)N(C)[C@@H](CC(C)C)C(=O)O[C@H](C)C(=O)N1C [Example 3-289, (3S,6R,9S,12R,15S,18R,21S,24R)-6,18-bis(4-((4-cyclopropylpyrimidin-5-yl)methyl)benzyl)-3,9,15,21-tetraisobutyl-4,10,12,16,22,24-hexamethyl-1,7,13,19-tetraoxa-4,10,16,22-tetraazacyclotetracosan-2,5,8,11,14,17,20,23-octaone]	0.0005	6	0.003	1 to 3.3	3.3	
CC(C)C[C@H]1C(=O)O[C@H](Cc2ccc(Cc3cccnc3C(F)F)cc2)C(=O)N(C)[C@@H](CC(C)C)C(=O)O[C@H](C)C(=O)N(C)[C@@H](CC(C)C)C(=O)O[C@H](Cc2ccc(Cc3cccnc3C(F)F)cc2)C(=O)N(C)[C@@H](CC(C)C)C(=O)O[C@H](C)C(=O)N1C [Example 3-290, (3S,6R,9S,12R,15S,18R,21S,24R)-6,18-bis[[4-[[2-(difluoromethyl)-3-pyridyl]methyl]phenyl]methyl]-3,9,15,21-tetraisobutyl-4,10,12,16,22,24-hexamethyl-1,7,13,19-tetraoxa-4,10,16,22-tetrazacyclotetracosane-2,5,8,11,14,17,20,23-octaone]	0.0001	3	0.0003	< 1	0.2	≤ 1
CC(C)C[C@H]1C(=O)O[C@H](Cc2ccc([C@@H](C)c3nccs3)cc2)C(=O)N(C)[C@@H](CC(C)C)C(=O)O[C@H](C)C(=O)N(C)[C@@H](CC(C)C)C(=O)O[C@H](Cc2ccc([C@@H](C)c3nccs3)cc2)C(=O)N(C)[C@@H](CC(C)C)C(=O)O[C@H](C)C(=O)N1C [Example 3-291, (3S,6R,9S,12R,15S,18R,21S,24R)-3,9,15,21-tetraisobutyl-4,6,10,16,18,22-hexamethyl-12,24-bis(4-((R)-1-(thiazol-2-yl)ethyl)benzyl)-1,7,13,19-tetraoxa-4,10,16,22-tetraazacyclotetracosan-2,5,8,11,14,17,20,23-octaone]	0.0001	3	0.0003	< 1	0.3	≤ 1
CC(C)C[C@H]1C(=O)O[C@H](Cc2ccc(Cc3ccnc(N4CCOCC4)c3)cc2)C(=O)N(C)[C@@H](CC(C)C)C(=O)O[C@H](C)C(=O)N(C)[C@@H](CC(C)C)C(=O)O[C@H](Cc2ccc(Cc3ccnc(N4CCOCC4)c3)cc2)C(=O)N(C)[C@@H](CC(C)C)C(=O)O[C@H](C)C(=O)N1C [Example 3-292, (3S,6R,9S,12R,15S,18R,21S,24R)-3,9,15,21-tetraisobutyl-4,6,10,16,18,22-hexamethyl-12,24-bis(4-((2-morpholinopyridin-4-yl)methyl)benzyl)-1,7,13,19-tetraoxa-4,10,16,22-tetraazacyclotetracosan-2,5,8,11,14,17,20,23-octaone]	0.0003	3.3	0.001	1 to 3.3	1.8	
COc1ncc(F)cc1Cc1ccc(C[C@H]2OC(=O)[C@H](CC(C)C)N(C)C(=O)[C@@H](C)OC(=O)[C@H](CC(C)C)N(C)C(=O)[C@@H](Cc3ccc(Cc4cc(F)cnc4OC)cc3)OC(=O)[C@H](CC(C)C)N(C)C(=O)[C@@H](C)OC(=O)[C@H](CC(C)C)N(C)C2=O)cc1 [Example 3-293, (3S,6R,9S,12R,15S,18R,21S,24R)-6,18-bis(4-((5-fluoro-2-methoxypyridin-3-yl)methyl)benzyl)-3,9,15,21-tetraisobutyl-4,10,12,16,22,24-hexamethyl-1,7,13,19-tetraoxa-4,10,16,22-tetraazacyclotetracosan-2,5,8,11,14,17,20,23-octaone]	0.0003	167	0.05		5.7	
Cc1ncncc1Cc1ccc(C[C@H]2OC(=O)[C@H](CC(C)C)N(C)C(=O)[C@@H](C)OC(=O)[C@H](CC(C)C)N(C)C(=O)[C@@H](Cc3ccc(Cc4cncnc4C)cc3)OC(=O)[C@H](CC(C)C)N(C)C(=O)[C@@H](C)OC(=O)[C@H](CC(C)C)N(C)C2=O)cc1 [Example 3-294, (3S,6R,9S,12R,15S,18R,21S,24R)-3,9,15,21-tetraisobutyl-4,6,10,16,18,22-hexamethyl-12,24-bis(4-((4-methylpyrimidin-5-yl)methyl)benzyl)-1,7,13,19-tetraoxa-4,10,16,22-tetraazacyclotetracosan-2,5,8,11,14,17,20,23-octaone]	0.0001	1	0.0001	< 1	1	≤ 1
